Laboratory results from article PMC8469489, “Effect of Lactic Acid Bacteria on the Pharmacokinetics and Metabolism of Ginsenosides in Mice” (Pharmaceutics, 2021).

How the values were obtained:
[1] = Pharmacokinetics of ginsenosides after single oral RGE after amoxicillin with or without repeated LAB treatment; conditions: single oral RGE 2 g/kg; for AUC: AUC 0 to 48 h
Procedure: (§1) Mice received amoxicillin (n = 12, 20 mg/kg, dissolved in water at 2 mL/kg, twice daily) for 3 days via oral gavage. From the 4th day, mice from the LAB + amoxicillin treatment group received LAB (2 g/kg suspended in water at 2 mL/kg, once daily) for 7 days via oral gavage. Mice from the amoxicillin treatment group received water (2 mL/kg, once daily) for 7 days via oral gavage.
Blood sampling was performed using a sparse sampling method via the right or left retro-orbital vein under isoflurane anesthesia at 0, 2, 4, and 8 h after the RGE administration through the heparinized capillary tube. […] After centrifugation of the blood samples at 10,000× g for 1 min, 30 μL aliquots of plasma were stored at −80 °C until the analysis of the ginsenosides. Subsequent protocols were identical to the amoxicillin treated group.
Pharmacokinetic parameters were calculated using WinNonlin (version 5.1, Pharsight, Mountain View, CA, USA) by a non-compartmental analysis.

[2] = Recovery of ginsenosides from urine and feces for 48 h after RGE, amoxicillin with or without LAB; conditions: feces 48 h after single oral RGE 2 g/kg; Amoxicillin + LAB vs amoxicillin
Procedure: as §1

[3] = Recovery of ginsenosides from urine and feces for 48 h after RGE, amoxicillin vs control; conditions: for Fecal recovery, change by the amoxicillin treatment: feces 48 h after single oral RGE 2 g/kg, vs control; for Ginsenosides identified in urine: urine 48 h after single oral RGE 2 g/kg
Procedure: Aliquots (200 μL) of an IS (0.05 ng/mL berberine in methanol) were added to 30 μL of plasma or urine samples. Aliquots (600 μL) of an IS methanol solution containing 0.05 ng/mL berberine were added to 100 μL of 10% feces homogenate samples. […] After centrifugation, 200 μL of the supernatant was transferred to a clean tube and dried under a nitrogen stream at 40 °C. The residue was reconstituted using 100 μL of 70% methanol supplemented with 0.1% formic acid, and a 10-μL aliquot was injected into the LC–MS/MS system.

[4] = tested on: lactic acid bacteria (LAB); test: Incubation of single ginsenoside with LAB (formation rate of metabolite ginsenoside); assay type: in vitro ADME; conditions: 7 days, 37 °C, MRS broth
Procedure: To compare the involvement of LAB on individual ginsenoside, an aliquot (10 μL) of each ginsenoside stock solution (10 mM in methanol) was mixed with autoclaved MRS broth (550 mg/10 mL in distilled water) and added 2 g of LAB (contained 1 billion CFU). Then, the mixture was incubated for 7 days in a shaking incubator at 37 °C and 300 rpm. For the analysis of ginsenosides, 0.2 mL aliquot of incubation mixture was collected every 24 h for 7 days. The incubation medium was diluted 100-fold with distilled water and stored at −80 °C. For the ginsenoside analysis, 200 μL of an IS solution (0.05 ng/mL berberine in methanol) was added to 30 μL of 100-fold diluted samples.

[5] = tested on: lactic acid bacteria (LAB); test: In vitro RGE fermentation with LAB; conditions: 7 days incubation
[6] = set-up: method as in PMID 32023909; conditions: cited from earlier work
[7] = Pharmacokinetics of ginsenosides after single oral RGE with or without amoxicillin treatment; assay type: in vivo, mice; conditions: single oral RGE 2 g/kg; for AUC: AUC 0 to 48 h
Procedure: Male ICR mice (7-weeks-year-old, 30–35 g) were purchased from Samtako Co. (Osan, Kyunggi-do, Korea). Animals were acclimatized for 1 week in an animal facility at Kyungpook National University. Food and water were available ad libitum.
Before blood sampling, mice were anesthetized using isoflurane (isoflurane vaporizer to 2% with oxygen flow at 0.8 L/min) for 5 min.

[8] = Amoxicillin 3 days then water 7 days
[9] = Amoxicillin 3 days pretreatment

With `CC(C)=CCC[C@](C)(O[C@@H]1O[C@H](CO)[C@@H](O)[C@H](O)[C@H]1O)[C@H]1CC[C@]2(C)[C@@H]1[C@H](O)C[C@@H]1[C@@]3(C)CC[C@H](O[C@@H]4O[C@H](CO)[C@@H](O)[C@H](O)[C@H]4O)C(C)(C)[C@@H]3CC[C@]12C` [GF2] as the compound, how does the “Plasma exposure / pharmacokinetic parameters, LAB treatment compared with amoxicillin group” value [1] read?
Its value is “increased”.

And the “Fecal recovery, change by LAB treatment” value [2]?
The value was “remained similar”.

What about the “Fecal recovery, change by the amoxicillin treatment” value [3] of the same compound?
Its value is “significantly decreased”.

And the “Metabolite formation on incubation of single ginsenoside with LAB” value (“Metabolite formation on incubation” below) [4]?
The value was “the highest among the ginsenoside formation rate”.

What about the “Alteration of ginsenoside by fermentation of RGE with LAB” value (“Alteration of ginsenoside” below) [5] of the same compound?
Its value is “gradual decrease”.

Which AUC ([1]; male, ICR, mouse, plasma, po, 2 g/kg, AUC, Amoxicillin 3 days then water 7 days) does the source give for `CC(C)=CCC[C@](C)(O[C@@H]1O[C@H](CO[C@@H]2O[C@H](CO)[C@@H](O)[C@H](O)[C@H]2O)[C@@H](O)[C@H](O)[C@H]1O)[C@H]1CC[C@]2(C)[C@@H]1[C@H](O)C[C@@H]1[C@@]3(C)CC[C@H](O[C@@H]4O[C@H](CO)[C@@H](O)[C@H](O)[C@H]4O[C@@H]4O[C@H](CO)[C@@H](O)[C@H](O)[C@H]4O)C(C)(C)[C@@H]3CC[C@]12C` [GRb1, 20(S)-ginsenosides Rb1] here?
The AUC was 752 ± 478 ng·h/mL.

What about the AUC ([1]; male, ICR, mouse, plasma, po, 2 g/kg, AUC, Amoxicillin + LAB (LAB 2 g/kg once daily 7 days)) of the same compound?
The AUC was 622 ± 164 ng·h/mL.

What about the Cmax ([1]; male, ICR, mouse, plasma, po, 2 g/kg, Cmax, Amoxicillin 3 days then water 7 days) of the same compound?
The Cmax was 23.7 ± 11.6 ng/mL.

What about the Cmax ([1]; male, ICR, mouse, plasma, po, 2 g/kg, Cmax, Amoxicillin + LAB) of the same compound?
The Cmax was 26.2 ± 4.6 ng/mL.

What about the Half-Life ([1]; male, ICR, mouse, plasma, po, 2 g/kg, Half-Life, Amoxicillin 3 days then water 7 days) of the same compound?
The Half-Life was 20.1 ± 2.2 h.

And the Half-Life ([1]; male, ICR, mouse, plasma, po, 2 g/kg, Half-life, Amoxicillin + LAB)?
Its Half-Life is 16.2 ± 0.9 h.

And the MRT ([1]; male, ICR, mouse, plasma, po, 2 g/kg, MRT, Amoxicillin 3 days then water 7 days)?
Its MRT is 18.6 ± 1.6 h.

And the MRT ([1]; male, ICR, mouse, plasma, po, 2 g/kg, MRT, Amoxicillin + LAB)?
Its MRT is 16.9 ± 1 h.

And the Tmax ([1]; male, ICR, mouse, plasma, po, 2 g/kg, Tmax, Amoxicillin 3 days then water 7 days)?
The Tmax was 3.3 ± 1.2 h.

What about the Tmax ([1]; male, ICR, mouse, plasma, po, 2 g/kg, Tmax, Amoxicillin + LAB) of the same compound?
Its Tmax is 4.7 ± 3.1 h.

What about the “Detection in mouse plasma following repeated LAB administration in addition to amoxicillin” value [1] of the same compound?
Its value is “detected”.

And the “Plasma exposure / pharmacokinetic parameters, LAB treatment compared with amoxicillin group” value [1]?
The value was “not different”.

And the “Ratio of liver AUC to plasma AUC” value [6]?
The value was less than 0.2.

And the AUC ([7]; male, ICR, mouse, plasma, po, 2 g/kg, Amoxicillin 3 days pretreatment, read-out: AUC)?
The AUC was 926 ± 439 ng·h/mL.

And the Cmax ([7]; male, ICR, mouse, plasma, po, 2 g/kg, Amoxicillin 3 days pretreatment, read-out: Cmax)?
The Cmax was 28.2 ± 12.9 ng/mL.

And the Half-Life ([7]; male, ICR, mouse, plasma, po, 2 g/kg, Amoxicillin 3 days pretreatment, read-out: Half-life (converted))?
Its Half-Life is 21.7 ± 3.6 h.

And the MRT ([7]; male, ICR, mouse, plasma, po, 2 g/kg, Amoxicillin 3 days pretreatment, read-out: MRT)?
The MRT was 19.3 ± 1.4 h.

What about the AUC ([7]; male, ICR, mouse, plasma, po, 2 g/kg, Control, plasma, n = 3, read-out: AUC) of the same compound?
Its AUC is 896 ± 81.3 ng·h/mL.

And the Cmax ([7]; male, ICR, mouse, plasma, po, 2 g/kg, Control, plasma, read-out: Cmax)?
The Cmax was 41.3 ± 14.3 ng/mL.

And the Half-Life ([7]; male, ICR, mouse, plasma, po, 2 g/kg, Control, plasma, read-out: Half-Life (converted))?
The Half-Life was 25.9 ± 4.7 h.

What about the MRT ([7]; male, ICR, mouse, plasma, po, 2 g/kg, Control, plasma, read-out: MRT) of the same compound?
The MRT was 16.3 ± 2.7 h.

And the Tmax ([7]; male, ICR, mouse, plasma, Amoxicillin 3 days pretreatment, read-out: Tmax)?
The Tmax was 8 h.

What about the “Plasma concentrations, amoxicillin treatment compared to the control group” value [7] of the same compound?
Its value is “not significantly affected”.

And the “Fecal recovery, change by LAB treatment” value [2]?
Its value is “significantly decreased”.

And the “Fecal recovery, change by the amoxicillin treatment” value [3]?
The value was “increased”.

And the “Ginsenosides identified in urine” value [3]?
The value was “identified in urine”.

And the “Alteration of ginsenoside” value [5]?
The value was “most significant decrease”.

With `CC(C)=CCC[C@](C)(O[C@@H]1O[C@H](CO[C@@H]2OC[C@H](O)[C@H](O)[C@H]2O)[C@@H](O)[C@H](O)[C@H]1O)[C@H]1CC[C@]2(C)[C@@H]1[C@H](O)C[C@@H]1[C@@]3(C)CC[C@H](O[C@@H]4O[C@H](CO)[C@@H](O)[C@H](O)[C@H]4O[C@@H]4O[C@H](CO)[C@@H](O)[C@H](O)[C@H]4O)C(C)(C)[C@@H]3CC[C@]12C` [GRb2] as the compound, how does the Cmax [1, 8] read?
The Cmax was 10.9 ± 5.2 ng/mL.

What about the Half-Life [1, 8] of the same compound?
The Half-Life was 19.2 ± 2.3 h.

What about the MRT [1, 8] of the same compound?
The MRT was 20.2 ± 1.7 h.

What about the Tmax [1, 8] of the same compound?
The Tmax was 4.0 ± 0.0 h.

What about the AUC [1, 8] of the same compound?
Its AUC is 385.9 ± 243.6 ng·h/mL.

And the AUC ([1]; Amoxicillin + LAB (LAB 2 g/kg once daily 7 days))?
Its AUC is 419.2 ± 108.6 ng·h/mL.

And the Cmax ([1]; Amoxicillin + LAB)?
The Cmax was 15.1 ± 3.4 ng/mL.

And the Half-Life ([1]; Amoxicillin + LAB)?
Its Half-Life is 21.6 ± 1.7 h.

And the MRT ([1]; Amoxicillin + LAB)?
The MRT was 18.1 ± 0.9 h.

What about the Tmax ([1]; Amoxicillin + LAB) of the same compound?
The Tmax was 8.0 ± 0.0 h.

What about the “Detection in mouse plasma following repeated LAB administration in addition to amoxicillin” value [1] of the same compound?
Its value is “detected”.

What about the “Plasma exposure / pharmacokinetic parameters, LAB treatment compared with amoxicillin group” value [1] of the same compound?
Its value is “not different”.

And the “Ratio of liver AUC to plasma AUC” value [6]?
Its value is less than 0.2.

And the Cmax [7, 9]?
The Cmax was 10.3 ± 4.6 ng/mL.

What about the Half-Life [7, 9] of the same compound?
Its Half-Life is 25.1 ± 2.7 h.

What about the MRT [7, 9] of the same compound?
Its MRT is 21.4 ± 1.6 h.

And the Tmax [7, 9]?
The Tmax was 13.3 ± 9.2 h.

And the AUC [7, 9]?
The AUC was 391.5 ± 192 ng·h/mL.

And the Cmax ([7]; Control, plasma)?
The Cmax was 12.5 ± 2.1 ng/mL.

And the Half-Life ([7]; Control, plasma)?
Its Half-Life is 24.6 ± 6.7 h.

What about the MRT ([7]; Control, plasma) of the same compound?
The MRT was 19.4 ± 1.6 h.

And the Tmax ([7]; Control, plasma)?
The Tmax was 8.0 ± 0.0 h.

What about the AUC ([7]; Control, plasma, n = 3) of the same compound?
The AUC was 361.4 ± 74.3 ng·h/mL.

What about the “Plasma concentrations, amoxicillin treatment compared to the control group” value [7] of the same compound?
Its value is “not significantly affected”.

What about the “Fecal recovery, change by LAB treatment” value [2] of the same compound?
Its value is “significantly decreased”.

What about the “Fecal recovery, change by the amoxicillin treatment” value [3] of the same compound?
The value was “increased”.

What about the “Ginsenosides identified in urine” value [3] of the same compound?
The value was “identified in urine”.

And the “Metabolite formation on incubation” value [4]?
Its value is “produced GRg3 with the highest formation rate”.

What about the “Alteration of ginsenoside” value [5] of the same compound?
The value was “most significant decrease”.

What does the source list for `CC(C)=CCC[C@](C)(O[C@@H]1O[C@H](CO)[C@@H](O)[C@H](O)[C@H]1O)[C@H]1CC[C@]2(C)[C@@H]1[C@H](O)C[C@@H]1[C@@]3(C)CC[C@H](O)C(C)(C)[C@@H]3[C@@H](O[C@@H]3O[C@H](CO)[C@@H](O)[C@H](O)[C@H]3O[C@@H]3O[C@@H](C)[C@H](O)[C@@H](O)[C@H]3O)C[C@]12C` [GRe]?
Fecal recovery, change by LAB treatment [2]: significantly decreased; Fecal recovery, change by the amoxicillin treatment [3]: increased; Ginsenosides identified in urine [3]: identified in urine; Metabolite formation on incubation of single ginsenoside with LAB [4]: produced GRh1; Alteration of ginsenoside by fermentation of RGE with LAB [5]: most significant decrease

For `CC(C)=CCC[C@](C)(O)[C@H]1CC[C@]2(C)[C@@H]1[C@H](O)C[C@@H]1[C@@]3(C)CC[C@H](O)C(C)(C)[C@@H]3[C@@H](O[C@@H]3O[C@H](CO)[C@@H](O)[C@H](O)[C@H]3O[C@@H]3O[C@H](CO)[C@@H](O)[C@H](O)[C@H]3O)C[C@]12C` [GRf], which “Fecal recovery, change by LAB treatment” value [2] is on record?
The value was “significantly decreased”.

And the “Fecal recovery, change by the amoxicillin treatment” value [3]?
The value was “increased”.

What about the “Metabolite formation on incubation” value [4] of the same compound?
The value was “produced GRh1”.

What about the “Alteration of ginsenoside” value [5] of the same compound?
The value was “gradual decrease”.

Which results are given for `CC(C)=CCC[C@](C)(O[C@@H]1O[C@H](CO)[C@@H](O)[C@H](O)[C@H]1O)[C@H]1CC[C@]2(C)[C@@H]1[C@H](O)C[C@@H]1[C@@]3(C)CC[C@H](O)C(C)(C)[C@@H]3[C@@H](O[C@@H]3O[C@H](CO)[C@@H](O)[C@H](O)[C@H]3O)C[C@]12C` [GRg1]?
Fecal recovery, change by LAB treatment [2]: significantly decreased; Fecal recovery, change by the amoxicillin treatment [3]: increased; Ginsenosides identified in urine [3]: identified in urine; Metabolite formation on incubation of single ginsenoside with LAB [4]: produced GRh1; Alteration of ginsenoside by fermentation of RGE with LAB [5]: gradual decrease
